In this assay the test system is aRPE cells. Description: intracellular ROS, GSH, MDA, antioxidant enzyme activity and survival in aRPE cells (basal, H2O2, BSO, Tempol). Format: cell-based, human. The settings on record: aRPE-PU cells, pretreatment 0.5 mmol/L, then 100 μM H2O2, p<0.05 vs H2O2. The procedure:
The results were expressed as nmol/g protein. Total SOD activity was determined by Superoxide Dismutase Activity Colorimetric Assay Kit (Abcam) according to manufacturer's protocol. SOD activity was expressed as units/g protein. GSH-Px and CAT activities were measured by glutathione peroxidase cellular activity assay kit and catalase assay kit, both are purchased from Sigma.
Cultured aRPE cells were washed with PBS twice and treated with 100 μM H2O2. After 8 hours, the medium was removed, and the cells were collected for the subsequent experiments. […] In brief, cells were incubated with […] DCFH-DA in culture medium for 30 min at 37° C., followed by washing with PBS and flow cytometric analysis. The intracellular GSH content was detected by colorimetric assay using the GSH-400 kit (OXIS International, Portland, Oreg., USA). In the GSH-400 assay, 4-chloro-1-methyl-7-trifluoromethyl-quinolinium methylsulfate was added to react with all mercaptans in the sample, leading to the formation of substitution products, […]. Then, 30% sodium hydroxide was used to mediate a β-elimination reaction and specifically transform GSH-thioester into a chromophoricthione with a maximal absorbance wavelength at 400 nm that was detected by a spectrophotometer.

From patent US8962587B2, “Gene delivery of OCT4 and SirT1 and pharmaceutical compositions thereof” (Taipei Veterans General Hospital, priority 2011, dated 2015) come the findings set out here.

On to `CC1(C)CC(O)CC(C)(C)N1[O]` [Tempol, 4-hydroxy-2,2,6,6-tetramethylpiperidinyloxy], for which the “H2O2-induced ROS production” value was “decreased” and the H2O2-induced cell death entry is “decreased”.
